{
  "source": "patent US7196112B2",
  "about": "“Cell adhesion inhibitors” (Biogen Idec MA Inc., priority 2004, dated 2007)",
  "key": {"[1]": {"assay": "Pharmacokinetics in female Lewis rats, noncompartmental analysis", "details": "rat, in vivo", "procedure": "Blood samples (250 μL/bleed) were obtained at specific timepoints after administration. For compound H, blood samples were drawn at 0, 8 minutes, 15 minutes, 30 minutes, and after 1 hour, 2, 4, 6, 8, 24, 32, 48, 72 and 168 hours following i.v. administration, and 1, 2, 4, 6, 8, 24, 32, 48, and 72 hours following s.c. administration. Serum samples were analyzed for compound H levels using an electrochemiluminescence assay. PK parameters were calculated from the […] data by noncompartmental analysis. PK parameters include CMAX (maximum serum concentration), tMAX (time to achieve maximum serum concentration), CL (systemic clearance), Vss (volume of distribution at steady state), t1/2 (terminal phase half-life), and bioavailability. Area under the curve (AUC) was calculated using the trapezoidal rule. Percent bioavailability was calculated from the following equation: (AUCextravascular/AUCIV)×(DoseIV/Doseextravascular)×100. For compound R^1, blood samples were drawn and analyzed as previously described (see Leone, D. R., et al. (2003) J. Pharmacol. Exp. Ther. 305:1150–1162).\nDilutions of test samples in 50 mM HEPES pH 7.5, 100 mM NaCl, 0.1% Triton X-100, 1 mM MnCl2, 1% rat plasma, 50 ng/mL α4β1 and 0.1 μg/mL ruthenium labeled mAb B5G10 were incubated at room temperature for 20 min. 0.5 nM A-biotin was added and samples were incubated for 60 minutes at room temperature. 50 μL of a 0.5 mg/mL solution of Dynabeads M-280 Streptavidin beads (Cat No. 402–175-02, Igen, Inc., Gaithersburg, Md.) that have been prepared in assay buffer containing 8% rat plasma was added and the samples were incubated for 30 minutes at room temperature with constant mixing. 150 μL of Origen assay buffer was added and samples were analyzed in a model 1100–1000 Origen analyzer (Igen, Inc) following the manufacturer's instructions. Concentrations of compound H were interpolated from a standard curve generated with compound H that had been diluted with plasma.\nThe pharmacokinetic properties of compounds H and R were evaluated by noncompartmental analysis following i.v. and s.c. administration in female Lewis rats (FIG. 2). […] Compound R was rapidly cleared from circulation."}, "α4β1 [2]": {"target": "T1, α4β1 (Homo sapiens, UniProt P05556+P13612)", "T1 sequence (P13612 34-1032)": "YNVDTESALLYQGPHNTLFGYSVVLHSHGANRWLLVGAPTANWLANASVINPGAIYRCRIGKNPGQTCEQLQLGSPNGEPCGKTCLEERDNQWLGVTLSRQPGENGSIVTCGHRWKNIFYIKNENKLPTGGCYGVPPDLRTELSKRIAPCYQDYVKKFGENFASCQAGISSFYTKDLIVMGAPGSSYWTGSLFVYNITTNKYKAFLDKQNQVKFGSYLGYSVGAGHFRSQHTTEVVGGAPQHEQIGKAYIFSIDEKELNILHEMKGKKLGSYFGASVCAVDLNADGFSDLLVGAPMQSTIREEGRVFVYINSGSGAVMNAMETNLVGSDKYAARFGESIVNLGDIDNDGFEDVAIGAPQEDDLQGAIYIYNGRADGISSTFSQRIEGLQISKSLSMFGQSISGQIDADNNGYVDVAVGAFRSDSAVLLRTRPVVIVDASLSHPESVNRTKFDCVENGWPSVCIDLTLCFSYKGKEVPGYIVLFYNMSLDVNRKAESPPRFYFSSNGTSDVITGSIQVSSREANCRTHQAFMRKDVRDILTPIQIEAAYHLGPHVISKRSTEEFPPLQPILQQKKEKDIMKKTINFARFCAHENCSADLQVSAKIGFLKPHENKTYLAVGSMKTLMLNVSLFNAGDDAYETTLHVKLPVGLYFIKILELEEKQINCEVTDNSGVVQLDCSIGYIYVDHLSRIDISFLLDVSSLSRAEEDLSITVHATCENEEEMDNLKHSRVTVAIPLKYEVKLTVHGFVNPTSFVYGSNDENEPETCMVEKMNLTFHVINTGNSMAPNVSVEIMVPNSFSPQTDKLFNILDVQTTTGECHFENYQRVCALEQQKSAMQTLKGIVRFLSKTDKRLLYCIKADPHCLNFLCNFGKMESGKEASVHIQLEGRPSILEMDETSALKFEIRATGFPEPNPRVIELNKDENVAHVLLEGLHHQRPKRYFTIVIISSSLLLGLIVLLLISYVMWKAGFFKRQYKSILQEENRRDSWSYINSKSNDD", "T1 sequence (P05556 21-798)": "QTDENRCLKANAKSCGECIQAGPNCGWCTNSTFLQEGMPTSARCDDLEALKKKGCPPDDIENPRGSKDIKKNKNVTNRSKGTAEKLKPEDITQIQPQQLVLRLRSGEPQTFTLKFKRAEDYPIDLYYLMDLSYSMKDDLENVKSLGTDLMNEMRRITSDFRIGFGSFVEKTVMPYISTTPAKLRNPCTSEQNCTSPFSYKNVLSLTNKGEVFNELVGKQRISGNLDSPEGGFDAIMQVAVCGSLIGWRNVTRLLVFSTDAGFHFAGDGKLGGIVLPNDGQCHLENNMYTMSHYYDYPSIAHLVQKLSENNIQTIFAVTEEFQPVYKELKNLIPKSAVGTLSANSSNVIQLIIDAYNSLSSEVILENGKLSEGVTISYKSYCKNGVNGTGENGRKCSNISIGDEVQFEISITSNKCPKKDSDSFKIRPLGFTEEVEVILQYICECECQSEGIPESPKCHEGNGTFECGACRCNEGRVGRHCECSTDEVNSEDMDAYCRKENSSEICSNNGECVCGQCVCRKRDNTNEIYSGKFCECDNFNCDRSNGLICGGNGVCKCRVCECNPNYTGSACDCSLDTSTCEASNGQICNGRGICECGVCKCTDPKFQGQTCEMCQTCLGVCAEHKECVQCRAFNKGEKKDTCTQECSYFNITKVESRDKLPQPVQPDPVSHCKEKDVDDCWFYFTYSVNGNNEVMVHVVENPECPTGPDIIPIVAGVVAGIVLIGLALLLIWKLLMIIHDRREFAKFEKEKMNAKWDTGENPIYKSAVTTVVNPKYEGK", "assay": "Kinetic binding to α4β1 on Jurkat cells, competition with 35S-B as probe for free α4β1", "set-up": "endogenous in cells; host or cells: Jurkat human T-cell line", "details": "for koff: read-out: koff/10^−4; for kon: read-out: kon/10^6; for Kd: calculated from on- and off-rate constants", "protocol": "All cells were periodically monitored for high integrin surface expression by FACS analysis. The binding of the various inhibitors to α4β1 were assessed on Jurkat cells by competition using radioactive ^35S-B as a reporter for a 1 occupancy. Jurkat cells were pelleted by centrifugation, washed two times with TBS (50 mM Tris HCl, 150 mM NaCl, 0.1% bovine serum albumin, 2 mM glucose, 10 mM HEPES pH 7.4), suspended at approximately 2×10^6 cells/mL in TBS, and counted using a Neubauer hemocytometer. The cells were further diluted 2×10^6 cells/mL with TBS containing 1 mM CaCl2 and 1 mM MgCl2 and treated with serial dilutions of test compound for 1 hour, and then 5 nM ^35S-B, an amount sufficient to bind all unoccupied receptors, was added for 10 minutes before measuring the bound counts. The cells were then pelleted by centrifugation, resuspended in 100 μL of TBS plus Mn^2+, and transferred to a scintillation vial containing 2.9 mL of ScintiVerse II (Fisher Scientific). Cell-associated radioactivity was quantified by scintillation counting. All studies were performed in siliconized 1.5 mL eppendorf tubes with a standard 1 mL sample volume. Each condition was tested in at least two independent studies. Non-specific binding of ^35S-B to cells was assessed at each cell density and ^35S-B concentration in TBS but in the absence of added metal ion. Specific counts bound were calculated by subtracting non specific counts from total counts bound. Counts bound under these conditions measures integrin that is not occupied by the test compound and is therefore free to bind the ^35S-B. The competition format was also used for kinetic binding studies. Binding and dissociation constants were calculated from α4β1 that remained free to bind the ^35S-B after treatment with test compound.\nThe affinities of the PEGylated inhibitors for α4β1 were calculated from association and disassociation rate constants using a kinetic analysis. For these studies, Jurkat cells expressing α4β1 (75,000 copies/cell) were treated with the inhibitors and then ^35S-B was added as a probe to detect free α4β1. The levels of bound inhibitor were calculated from a measure of total ^35S-B bound in the absence of added inhibitor and counts bound following inhibitor treatment."}, "α4β1 [3]": {"target": "T1, α4β1", "assay": "Equilibrium binding on Jurkat cells, competition with 35S-B as reporter", "protocol": "The α4β1-expressing Jurkat human T-cell line (a gift from S. Burakoff, Dana Farber Cancer Institute, Boston, Mass.), and the α4β7-expressing human B-cell line, JY (American Type Tissue Collection, Rockville, Md.) were maintained in culture at 37° C. in RPMI-1640 medium supplemented with 10% fetal bovine serum (FBS). K562 cell lines transfected with either the human α1-integrin chain (Phil Gotwells, Biogen, Inc) or with the human α2 integrin chain (a gift from M. Hemler, Dana Farber Cancer Institute, Boston, Mass.) were maintained in RPMI-1640 medium supplemented with 10% FBS and 1 mg/mL G418. All cells were periodically monitored for high integrin surface expression by FACS analysis. The binding of the various inhibitors to α4β1 were assessed on Jurkat cells by competition using radioactive ^35S-B as a reporter for a 1 occupancy. Jurkat cells were pelleted by centrifugation, washed two times with TBS (50 mM Tris HCl, 150 mM NaCl, 0.1% bovine serum albumin, 2 mM glucose, 10 mM HEPES pH 7.4), suspended at approximately 2×10^6 cells/mL in TBS, and counted using a Neubauer hemocytometer. The cells were further diluted 2×10^6 cells/mL with TBS containing 1 mM CaCl2 and 1 mM MgCl2 and treated with serial dilutions of test compound for 1 hour, and then 5 nM ^35S-B, an amount sufficient to bind all unoccupied receptors, was added for 10 minutes before measuring the bound counts. The cells were then pelleted by centrifugation, resuspended in 100 μL of TBS plus Mn^2+, and transferred to a scintillation vial containing 2.9 mL of ScintiVerse II (Fisher Scientific). Cell-associated radioactivity was quantified by scintillation counting. All studies were performed in siliconized 1.5 mL eppendorf tubes with a standard 1 mL sample volume. Each condition was tested in at least two independent studies. Non-specific binding of ^35S-B to cells was assessed at each cell density and ^35S-B concentration in TBS but in the absence of added metal ion. Specific counts bound were calculated by subtracting non specific counts from total counts bound. Counts bound under these conditions measures integrin that is not occupied by the test compound and is therefore free to bind the ^35S-B. The competition format was also used for kinetic binding studies. Binding and dissociation constants were calculated from α4β1 that remained free to bind the ^35S-B after treatment with test compound.\nThe affinities of the PEGylated inhibitors for α4β1 were calculated from association and disassociation rate constants using a kinetic analysis. For these studies, Jurkat cells expressing α4β1 (75,000 copies/cell) were treated with the inhibitors and then ^35S-B was added as a probe to detect free α4β1. The levels of bound inhibitor were calculated from a measure of total ^35S-B bound in the absence of added inhibitor and counts bound following inhibitor treatment. […] IC50 values were calculated from equilibrium binding studies on Jurkat cells through competition using ^35S-B as a reporter in buffer containing 1 mM Ca^2+ and 1 mM Mg^2+.\nSecond, the effect of protein binding on the affinity of the PEGylated inhibitors for α4β1 on Jurkat cells was evaluated from equilibrium binding measurements."}, "[4]": {"details": "IC50, buffer with 1 mM Ca2+ and 1 mM Mg2+, no plasma"}},
  "data": [
    {"molecule": "Cc1ccccc1NC(=O)Nc1ccc(CC(=O)N(C)[C@@H](CC(C)C)C(=O)NCC[C@H](NC(=O)[C@@H]2CCCN2S(=O)(=O)c2cc(Cl)cc(Cl)c2)C(=O)O)cc1", "note": "[Compound R, 2S-{[1-(3,5-dichloro-benzenesulfonyl)-pyrrolidine-2S-carbonyl]-amino}-4-[4-methyl-2S-(methyl-{2-[4-(3-o-tolyl-ureido)-phenyl]-acetyl}-amino)-pentanoylamino]-butyric acid]", "values": [
      {"measurement": "AUC", "setting": "[1]; iv, 1 mg/kg", "value": 2300, "unit": "ng·h/mL"},
      {"measurement": "Cmax", "setting": "[1]; iv, 1 mg/kg", "value": 13100, "unit": "ng/mL"},
      {"measurement": "Tmax", "setting": "[1]; iv, 1 mg/kg", "value": 0, "unit": "h"},
      {"measurement": "Vd", "setting": "[1]; iv, 1 mg/kg", "value": 0.168, "unit": "L/kg"},
      {"measurement": "clearance", "setting": "[1]; iv, 1 mg/kg", "value": 7.1, "unit": "mL/min/kg"},
      {"measurement": "half-life", "setting": "[1]; iv, 1 mg/kg", "value": 1.1, "unit": "h"},
      {"measurement": "AUC", "setting": "[1]; sc, 10 mg/kg", "value": 6100, "unit": "ng·h/mL"},
      {"measurement": "CL", "setting": "[1]; sc, 10 mg/kg", "value": 27.17, "unit": "mL/min/kg"},
      {"measurement": "Cmax", "setting": "[1]; sc, 10 mg/kg", "value": 780, "unit": "ng/mL"},
      {"measurement": "Tmax", "setting": "[1]; sc, 10 mg/kg", "value": 0.5, "unit": "h"},
      {"measurement": "bioavailability", "setting": "[1]; sc, 10 mg/kg", "value": 20, "unit": "%"},
      {"measurement": "half-life", "setting": "[1]; sc, 10 mg/kg", "value": 2.7, "unit": "h"},
      {"measurement": "time >100 ng/mL blood levels were maintained", "setting": "[1]; sc, 10 mg/kg", "value": 12, "unit": "h"},
      {"measurement": "koff", "setting": "α4β1 [2]; Jurkat cells, 35S-B probe", "value": "1.2e-05", "unit": "s⁻¹"},
      {"measurement": "kon", "setting": "α4β1 [2]; Jurkat cells, 35S-B probe", "value": "1.5e+06", "unit": "M⁻¹ s⁻¹"},
      {"measurement": "Kd", "setting": "α4β1 [2]; Jurkat cells", "value": 0.009, "unit": "nM"},
      {"measurement": "IC50", "setting": "α4β1 [3]; IC50(HP), 100% human plasma", "value": 0.8, "unit": "nM"},
      {"measurement": "IC50", "setting": "α4β1 [3]; [4]", "value": 0.15, "unit": "nM"}
    ]},
    {"molecule": "Cc1ccccc1NC(=O)Nc1ccc(CC(=O)N(C)[C@@H](CC(C)C)C(=O)NCC[C@H](NC(=O)C2CCCN2S(=O)(=O)c2ccccc2)C(=O)O)cc1", "note": "(stereo partly drawn) [Compound B, 2S-[(1-benzenesulfonyl-pyrrolidine-2S-carbonyl)-amino]-4-[4-methyl-2S-(methyl-{2-[4-(3-o-tolyl-ureido)-phenyl]-acetyl}-amino)-pentanoylamino]-butyric acid]", "values": [
      {"measurement": "half-life", "setting": "[1]; iv", "value": 2.5, "unit": "h"},
      {"measurement": "bioavailability", "setting": "[1]; sc", "value": 21, "unit": "%"},
      {"measurement": "% bound Ca2+Mg2+ 30 min", "setting": "α4β1 [2]; Ca2+Mg2+, 30 min", "value": ">90", "unit": "%"},
      {"measurement": "On-rate", "setting": "α4β1 [2]; Jurkat cells, 35S-B probe", "value": "4e+06", "unit": "M⁻¹ s⁻¹"},
      {"measurement": "koff", "setting": "α4β1 [2]; Jurkat cells, 35S-B probe", "value": "1.9e-05", "unit": "s⁻¹"},
      {"measurement": "kon", "setting": "α4β1 [2]; Jurkat cells, 35S-B probe", "value": "4e+06", "unit": "M⁻¹ s⁻¹"},
      {"measurement": "% bound Mn2+ 60 min", "setting": "α4β1 [2]; Mn2+, 60 min", "value": ">95", "unit": "%"},
      {"measurement": "Kd", "setting": "α4β1 [2]; Jurkat cells", "value": 0.005, "unit": "nM"},
      {"measurement": "IC50", "setting": "α4β1 [3]; IC50(HP), 100% human plasma", "value": 1.5, "unit": "nM"},
      {"measurement": "IC50", "setting": "α4β1 [3]; [4]", "value": 0.21, "unit": "nM"}
    ]}
  ]
}
